Results as given in the supplement of paper PMC4862054.

Columns and labels:
Assay in all cases: normalised response (% of control), CellTiter-Glo; higher = more viable cells (100 = DMSO, 0 = benzethonium chloride kill control)
Conditions in all cases: incubation time: 72 h
BT-474 = system: BT-474
Method in brief: (§1)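 Breast cancer cell lines in 20 µl suspension were added to 384-well plates containing compound at 5 concentrations, spaced in 10-fold steps across a 10,000-fold range chosen for each compound, and incubated for 72 h. CellTox Green fluorescence was read at 485/520 nm, followed by CellTiter-Glo luminescence after 10 min at room temperature. Signals on each plate were normalised so that 0.1 % DMSO equals 100 and a positive kill control equals 0. Every value in the table is the normalised signal at one concentration of the series.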

BT-549 = system: BT-549
Method in brief: as §1

CAL-120 = system: CAL-120
Method in brief: as §1

CAL-148 = system: CAL-148
Method in brief: as §1

CAL-51 = system: CAL-51
Method in brief: as §1

CAL-85-1 = system: CAL-85-1
Method in brief: as §1

DU-4475 = system: DU-4475
Method in brief: as §1

HCC1143 = system: HCC1143
Method in brief: as §1

HCC1599 = system: HCC1599
Method in brief: as §1

HCC1937 = system: HCC1937
Method in brief: as §1

HDQ-P1 = system: HDQ-P1
Method in brief: as §1

Hs578T = system: Hs578T
Method in brief: as §1

MCF-10A = system: MCF-10A
Method in brief: as §1

MDA-MB-231 = system: MDA-MB-231
Method in brief: as §1

MDA-MB-436 = system: MDA-MB-436
Method in brief: as §1

MDA-MB-453 = system: MDA-MB-453
Method in brief: as §1

MDA-MB-468 = system: MDA-MB-468
Method in brief: as §1

MFM-223 = system: MFM-223
Method in brief: as §1

SK-BR-3 = system: SK-BR-3
Method in brief: as §1

Structure (SMILES)	normalised response (BT-474) [%]	normalised response (BT-549) [%]	normalised response (CAL-120) [%]	normalised response (CAL-148) [%]	normalised response (CAL-51) [%]	normalised response (CAL-85-1) [%]	normalised response (DU-4475) [%]	normalised response (HCC1143) [%]	normalised response (HCC1599) [%]	normalised response (HCC1937) [%]	normalised response (HDQ-P1) [%]	normalised response (Hs578T) [%]	normalised response (MCF-10A) [%]	normalised response (MDA-MB-231) [%]	normalised response (MDA-MB-436) [%]	normalised response (MDA-MB-453) [%]	normalised response (MDA-MB-468) [%]	normalised response (MFM-223) [%]	normalised response (SK-BR-3) [%]
CCn1c(-c2nonc2N)nc2cnc(Oc3cccc(NC(=O)c4ccc(OCCN5CCOCC5)cc4)c3)cc21 (1 nM)	95.1	108	41.8	98.6	114	101	94.3	103	103	104	104	99.5	102	102	104	101	95.6	96.8	102
CCn1c(-c2nonc2N)nc2cnc(Oc3cccc(NC(=O)c4ccc(OCCN5CCOCC5)cc4)c3)cc21 (10 nM)	93.3	97.3	92.4	94.9	121	102	94.2	101	104	104	103	104	89	99.8	95	91.3	94.3	106	117
N#Cc1ccc(COC[C@H]2O[C@@H](n3c(NCc4ccc(Cl)c(Cl)c4)nc4c(N)ncnc43)[C@H](O)[C@@H]2O)cc1 (10 nM)	107	103	97.2	115	76.3	98.1	106	107	92.3	98.7	97.5	101	101	106	108	106	101	113	132
COc1cc(O)c2c(c1)/C=C/C[C@H](O)[C@H](O)C(=O)/C=C\C[C@H](C)OC2=O [(5Z)-7-Oxozeaenol] (1 nM)	97.9	109	99.8	104	93.9	95.2	96.6	106	91.8	98.7	105	99.9	109	103	98	106	98	108	105
COc1cc(O)c2c(c1)/C=C/C[C@H](O)[C@H](O)C(=O)/C=C\C[C@H](C)OC2=O [(5Z)-7-Oxozeaenol] (10 nM)	106	103	94.9	106	107	96.4	102	108	121	106	96.9	104	112	109	99	93	100	107	107
COc1cc(OC2CCN(C)CC2)ccc1Nc1ncc2c(n1)n(C1CCCC1)c(=O)n2C [AZ 3146] (10 nM)	107	96.3	103	99.7	132	102	97	100	95.9	96.1	95.9	93	95.5	104	98.2	97.8	111	102	95.4
CNC(=O)c1cccc(-c2ccc3c(N4CCOC[C@@H]4C)nc(N4CCOC[C@@H]4C)nc3n2)c1 [AZD2014] (1 nM)	97.5	102	98.4	111	125	95	99.4	104	92	101	98	101	114	108	89.7	105	103	106	115
CNC(=O)c1cccc(-c2ccc3c(N4CCOC[C@@H]4C)nc(N4CCOC[C@@H]4C)nc3n2)c1 [AZD2014] (10 nM)	99.5	96.8	93.5	106	105	97.6	104	99.8	115	101	98.8	104	111	97.7	98.5	101	104	106	99
CN(C)c1nc(N(C)C)nc(N(C)C)n1 [Altretamine] (10 nM)	101	100	97.9	109	101	101	100	105	103	99.3	98.9	110	109	101	96.5	115	104	109	113
O=C(/C=C/c1cccc(S(=O)(=O)Nc2ccccc2)c1)NO [Belinostat] (10 nM)	98.2	101	96.9	85.7	80.2	93.8	97.2	99.2	96.5	94.8	88.5	94.3	96	98.5	91	97.1	105	88.5	68.9
Nc1cc(C(F)(F)F)c(-c2cc(N3CCOCC3)nc(N3CCOCC3)n2)cn1 [Buparlisib] (1 nM)	98.8	102	103	95	112	92.3	97.7	92.6	90.2	97.1	97.3	97.3	98.8	98.7	98.9	101	96.3	97.1	101
Nc1cc(C(F)(F)F)c(-c2cc(N3CCOCC3)nc(N3CCOCC3)n2)cn1 [Buparlisib] (10 nM)	97.3	100	104	97	113	96.5	97.1	97.2	108	93.3	99	98.4	98.2	103	101	104	101	97.3	110
O=P1(N(CCCl)CCCl)NCCCO1 (stereo not drawn) [Cyclophosphamide] (40 nM)	100	97.9	96.8	104	79.3	98.7	106	105	98.2	95.6	98.4	106	102	99.9	99.1	106	101	100	91
CNC(=O)c1ccc(N2C(=S)N(c3ccc(C#N)c(C(F)(F)F)c3)C(=O)C2(C)C)cc1F [Enzalutamide] (1 nM)	97.4	107	98.8	102	109	95.6	98.9	98.5	108	103	100	103	105	95	102	103	101	99.6	108
CNC(=O)c1ccc(N2C(=S)N(c3ccc(C#N)c(C(F)(F)F)c3)C(=O)C2(C)C)cc1F [Enzalutamide] (10 nM)	103	91.4	95.3	107	124	93.5	101	103	95.8	91.3	100	101	106	94.5	99.4	99	98.7	98.6	98
C=C1C[C@@H]2[C@H](CC[C@]3(C)C(=O)CC[C@@H]23)[C@@]2(C)C=CC(=O)C=C12 [Exemestane] (10 nM)	21	98	98	109	70.2	108	106	99.7	99.1	103	98.9	99.7	116	106	104	116	109	108	
Cc1cc(Nc2cc(CN3CCOCC3)c3nc(C)c(Cc4ccc(Cl)cc4F)n3n2)n[nH]1 [Gandotinib] (10 nM)	106	100	98.2	110	92	101	104	102	118	94.2	106	99.5	108	102	104	99.3	101	105	
O=C(Nc1ccncc1)C(=O)c1cn(Cc2ccc(Cl)cc2)c2ccccc12 [Indibulin] (10 nM)	112	93.5	92.6	109	86.5	99.9	105	100	93.4	98.2	94.1	104	102	104	99.2	95	102	107	
Cc1ccc(NC(=O)c2ccc(CN3CCN(C)CC3)cc2)cc1Nc1nc(-c2cccnc2)cs1 [Masitinib] (10 nM)	102	101	91.5	108	99.4	99.7	102	98.4	93.8	97.4	93.6	98.8	104	100	101	113	108	105	
Cc1[nH]c2ccccc2c1CCNCc1ccc(/C=C/C(=O)NO)cc1 [Panobinostat] (1 nM)	103	101	101	101	118	104	99.1	104	100	96.5	102	98.7	99.9	102	107	92.8	103	100	
COCC1(CO)C(=O)C2CCN1CC2 (stereo not drawn) [Prima-1 Met] (10 nM)	103	93.7	92.4	102	124	103	109	103	92.7	99	95.1	103	107	103	101	111	102	103	
